± gives the expanded uncertainty stated by the source.
Test: mn = molality of the nth substance listed, in mol/kg
Conditions: 101 kPa, Liquid, Alternating current cell with electrodes

O=[N+]([O-])[O-].[K+] [potassium nitrate] + O
electrical conductivity [S/m]
Conditions | 278.15 K | 283.15 K | 298.15 K | 308.15 K | 318.15 K | 343.15 K | 363.15 K
m1 = 0.000103 | 0.0009389 ± 3.8e-06 | 0.001073 ± 4e-06 | 0.001486 ± 6e-06 | 0.001798 ± 7e-06 | 0.002048 ± 8e-06 | 0.00283 ± 1.1e-05 | 0.00348 ± 1.4e-05
m1 = 0.000997 | 0.008901 ± 3.6e-05 | 0.01015 ± 4e-05 | 0.01411 ± 6e-05 | 0.01701 ± 7e-05 | 0.01956 ± 8e-05 | 0.02717 ± 0.00011 | 0.0338 ± 0.00014
m1 = 0.01026 | 0.0874 ± 0.0004 | 0.09971 ± 0.0004 | 0.1385 ± 0.0006 | 0.1664 ± 0.0007 | 0.1919 ± 0.0008 | 0.2666 ± 0.0011 | 0.3287 ± 0.0013
m1 = 0.09972 | 0.7601 ± 0.003 | 0.8658 ± 0.0035 | 1.201 ± 0.0048 | 1.44 ± 0.0058 | 1.669 ± 0.0067 | 2.342 ± 0.0094 | 2.875 ± 0.011
m1 = 0.4093 | 2.815 ± 0.011 | 3.211 ± 0.013 | 4.407 ± 0.018 | 5.264 ± 0.021 | 6.162 ± 0.025 | 8.59 ± 0.034 | 10.45 ± 0.042
m1 = 0.7941 | 4.806 ± 0.019 | 5.474 ± 0.022 | 7.428 ± 0.03 | 8.831 ± 0.035 | 10.38 ± 0.042 | 14.63 ± 0.059 | 16.97 ± 0.068

O=S(=O)([O-])[O-].[Ca+2] [calcium sulfate] + O
electrical conductivity [S/m]
Conditions | 278.15 K | 283.15 K | 298.15 K | 308.15 K | 318.15 K | 343.15 K | 363.15 K
m1 = 7.6e-05 | 0.00123 ± 1e-05 | 0.001409 ± 6e-06 | 0.001963 ± 8e-06 | 0.002529 ± 1e-05 | 0.003011 ± 1.2e-05 | 0.004223 ± 1.7e-05 | 0.00536 ± 2e-05
m1 = 0.00102 | 0.01397 ± 6e-05 | 0.01601 ± 6e-05 | 0.02275 ± 9e-05 | 0.02808 ± 0.00011 | 0.0325 ± 0.0001 | 0.04537 ± 0.00018 | 0.05546 ± 0.00022
m1 = 0.01245 | 0.1154 ± 0.0005 | 0.1331 ± 0.0005 | 0.185 ± 0.0007 | 0.2255 ± 0.0009 | 0.2573 ± 0.001 | 0.3419 ± 0.0014 | 0.3973 ± 0.0016

O=[N+]([O-])[O-].O=[N+]([O-])[O-].[Mn+2] [manganese nitrate] + O
electrical conductivity [S/m]
Conditions | 278.1 K | 283.1 K | 298.15 K | 308.15 K | 318.15 K | 343.15 K | 363.15 K
m1 = 0.000917 | 0.05151 ± 0.00021 | 0.05774 ± 0.00023 | 0.07688 ± 0.00031 | 0.08959 ± 0.00036 | 0.1015 ± 0.0004 | 0.1307 ± 0.0005 | 0.155 ± 0.0006
m1 = 0.01047 | 0.1786 ± 0.0007 | 0.2033 ± 0.0008 | 0.282 ± 0.0011 | 0.3382 ± 0.0014 | 0.3934 ± 0.0016 | 0.538 ± 0.0022 | 0.6651 ± 0.0027
m1 = 0.086 | 1.04 ± 0.0042 | 1.179 ± 0.0047 | 1.63 ± 0.0065 | 1.958 ± 0.0078 | 2.295 ± 0.0092 | 3.125 ± 0.013 | 3.692 ± 0.015
m1 = 0.8521 | 7.064 ± 0.028 | 7.973 ± 0.032 | 10.69 ± 0.043 | 12.54 ± 0.05 | 14.41 ± 0.058 | 19.41 ± 0.078 | –
